Source: paper PMC9609428, “Rational Design and Synthesis of New Selective COX-2 Inhibitors with In Vivo PGE2-Lowering Activity by Tethering Benzenesulfonamide and 1,2,3-Triazole Pharmacophores to Some NSAIDs” (Pharmaceuticals, 2022)

Legend:
human COX-2 = target: T1, human COX-2 (Homo sapiens, UniProt P35354); assay: In vitro human COX-2 enzymatic inhibitory activity (Cayman COX inhibitor screening assay kit); assay type: biochemical; conditions: for SI COX-1/COX-2: COX-2 selectivity index: COX-1 IC50/COX-2 IC50; for IC50: mean ± SEM of triplicate determinations
T1 construct: purchased Cayman Chemicals Inc., Ann Arbor, MI, USA 560131
T1 sequence (P35354 18-604): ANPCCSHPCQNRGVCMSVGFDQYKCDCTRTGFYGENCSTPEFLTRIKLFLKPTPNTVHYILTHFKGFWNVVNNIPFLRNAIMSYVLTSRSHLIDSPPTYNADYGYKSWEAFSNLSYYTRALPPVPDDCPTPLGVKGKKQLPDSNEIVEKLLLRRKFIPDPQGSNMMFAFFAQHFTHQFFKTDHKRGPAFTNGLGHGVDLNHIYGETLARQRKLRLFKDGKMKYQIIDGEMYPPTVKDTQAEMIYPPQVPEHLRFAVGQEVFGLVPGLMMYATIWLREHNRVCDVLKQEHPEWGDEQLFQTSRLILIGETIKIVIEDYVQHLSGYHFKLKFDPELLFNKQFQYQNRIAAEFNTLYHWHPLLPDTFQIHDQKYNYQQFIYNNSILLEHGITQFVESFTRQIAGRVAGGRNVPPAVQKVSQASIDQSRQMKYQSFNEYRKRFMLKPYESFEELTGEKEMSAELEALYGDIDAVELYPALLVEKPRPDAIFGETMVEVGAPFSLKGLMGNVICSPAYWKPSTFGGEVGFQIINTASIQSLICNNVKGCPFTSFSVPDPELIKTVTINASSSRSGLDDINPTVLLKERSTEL
Experimental: (§1) Inhibitory activities were defined as a test compound concentration achieving 50% human COX-1 or human COX-2 inhibition. The selectivity of compounds was referred to as a compound’s selectivity index values calculated as IC50 (COX-1)/IC50 (COX-2).
(§2) In vitro human COX-1 and human COX-2 enzymatic inhibitory activity of the tested compounds as well as the reference drugs was carried out according to the previously mentioned procedures; for details, see Page S15, Supplementary File.
(§3) 4.2. Biological screening
(§4) 4.2.1. In vitro human COX-1 and human COX-2 enzymatic inhibitory activities In vitro human COX-1 and human COX-2 enzymatic inhibitory activity of the tested compounds as well as the reference drugs was carried out according to the previously mentioned procedures [1][2]depending on Cayman colorimetric COX (ovine) inhibitor screening assay kit (Catalog No.
(§5) All reagents, test solutions and experimental procedures were performed in correspondence to both the manufacturer’s instructions and previously reported methods. Briefly, […] of different concentrations of tested compound solutions were added to a series of supplied reaction buffer solutions (960 µL, 0.1 M Tris-HCl, pH 8.0 containing 5 mM EDTA and 2 mM phenol) with either COX-1 or COX-2 (10 µL) enzyme in the presence of heme (10 µL). 10 µL of Arachidonic Acid (100 µM) solution were added to the mixtures of the enzyme and tested compounds, After incubating for 5 min at 25 °C followed by stopping COX reaction by adding of 50 µL of 1 M HCl. Moreover, after adding 100 µL of saturated stannous chloride solution, the absorbance was measured spectrophotometrically using plate reader. measuring the […]
(§6) percentage of human COX-1 or human COX-2 enzymatic inhibition of five different concentrations of each compound and then concentration-inhibition response curve were plotted to obtain IC50 values(three determinations). […]

[1] = target: T2, (Ovis aries, UniProt P05979); assay: In vitro human COX-1 enzymatic inhibitory activity (Cayman COX inhibitor screening assay kit); assay type: biochemical; conditions: mean ± SEM of triplicate determinations
T2 construct: purchased Cayman Chemicals Inc., Ann Arbor, MI, USA 560131
T2 sequence (P05979 25-600): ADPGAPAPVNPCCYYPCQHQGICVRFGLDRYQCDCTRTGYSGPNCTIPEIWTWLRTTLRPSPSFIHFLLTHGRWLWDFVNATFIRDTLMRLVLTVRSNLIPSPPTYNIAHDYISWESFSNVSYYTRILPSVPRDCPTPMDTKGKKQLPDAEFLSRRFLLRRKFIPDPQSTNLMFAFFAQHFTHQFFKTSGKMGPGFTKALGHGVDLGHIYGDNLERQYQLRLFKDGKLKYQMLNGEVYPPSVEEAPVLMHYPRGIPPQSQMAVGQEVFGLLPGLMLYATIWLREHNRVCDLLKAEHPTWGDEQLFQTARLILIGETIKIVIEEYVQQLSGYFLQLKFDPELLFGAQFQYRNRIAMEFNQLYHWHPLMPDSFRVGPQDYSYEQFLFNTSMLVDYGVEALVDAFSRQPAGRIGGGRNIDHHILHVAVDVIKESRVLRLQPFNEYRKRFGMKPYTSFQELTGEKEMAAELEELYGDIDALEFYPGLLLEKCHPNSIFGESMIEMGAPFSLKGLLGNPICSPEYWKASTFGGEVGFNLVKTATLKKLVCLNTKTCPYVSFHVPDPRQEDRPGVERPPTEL
Experimental: as §1, §2, §3, §4, §5, §6

Compound	SI COX-1/COX-2 (human COX-2)	IC50 (human COX-2) [µM]	IC50 [1] [µM]	melting point [°C]
CC(=NNC(=O)Cc1ccccc1Nc1c(Cl)cccc1Cl)c1nnn(-c2ccc(S(N)(=O)=O)cc2)c1C [Compound 6d, 4-(4-(1-(2-(2-(2-((2,6-Dichlorophenyl)amino)phenyl)acetyl)hydrazineylidene)ethyl)-5-methyl-1H-1,2,3-triazol-1-yl)benzenesulfonamide]	105	0.08 ± 0.0009	8.4 ± 0.0577	241 to 243
CC(=NNC(=O)C(C)c1ccc(CC(C)C)cc1)c1nnn(-c2ccc(S(N)(=O)=O)cc2)c1C (stereo not drawn) [Compound 6a, 4-(4-(1-(2-(2-(4-Isobutylphenyl)propanoyl)hydrazineylidene)ethyl)-5-methyl-1H-1,2,3-triazol-1-yl)benzenesulfonamide]	114.13	0.08 ± 0.0006	9.13 ± 0.0882	205 to 207
CC(=NNC(=O)Cc1ccccc1Nc1c(Cl)cccc1Cl)c1nnn(-c2ccc(S(=O)(=O)Nc3ncccn3)cc2)c1C [Compound 6f, 4-(4-(1-(2-(2-(2-((2,6-Dichlorophenyl)amino)phenyl)acetyl)hydrazineylidene)ethyl)-5-methyl-1H-1,2,3-triazol-1-yl)-N-(pyrimidin-2-yl)benzenesulfonamide]	158.38	0.08 ± 0.0007	12.67 ± 0.0333	276 to 278
CC(=O)c1nnn(-c2ccc(S(=O)(=O)Nc3nccc(C)n3)cc2)c1C [Compound 4d, 4-(4-Acetyl-5-methyl-1H-1,2,3-triazol-1-yl)-N-(4-methylpyrimidin-2-yl)benzenesulfonamide]	84.27	0.11 ± 0.0057	9.27 ± 0.0667	241 to 243
CC(=NNC(=O)c1ccccc1O)c1nnn(-c2ccc(S(=O)(=O)Nc3ncccn3)cc2)c1C [Compound 6i, 4-(4-(1-(2-(2-Hydroxybenzoyl)hydrazineylidene)ethyl)-5-methyl-1H-1,2,3-triazol-1-yl)-N-(pyrimidin-2-yl)benzenesulfonamide]	146.14	0.07 ± 0.0006	10.23 ± 0.0882	248 to 250
CC(=NNC(=O)c1ccccc1O)c1nnn(-c2ccc(S(=O)(=O)Nc3nccs3)cc2)c1C [Compound 6h, 4-(4-(1-(2-(2-Hydroxybenzoyl)hydrazineylidene)ethyl)-5-methyl-1H-1,2,3-triazol-1-yl)-N-(thiazol-2-yl)benzenesulfonamide]	91.89	0.09 ± 0.0006	8.27 ± 0.0667	227 to 229
